The subject of data set [1] is Mycobacterium tuberculosis. In kind it is functional. The conditions noted are these: 504 h, time 3 weeks, read-out: MIC100.
The test system of data set [2] is Vero. As to the kind of experiment: Cytotoxicity against African green monkey Vero cells assessed as decrease in cell viability incubated for 72 hrs by resazurin assay. Format: cell-based. The conditions noted are these: Chlorocebus sabaeus. A general note: Alamar Blue is a resazurin reagent that responds to reducing activity.
Data set [3] deals with Mycolicibacterium smegmatis. The experiment in a line: Inhibition of NDH-2 in wild type Mycobacterium smegmatis mc24517 inverted membrane vesicles assessed as reduction in oxygen consumption at 50 uM by NADH oxygen consumption assay. Format: cell membranes. Particulars: Membrane vesicle.
For data set [4], the system named is Mycobacterium tuberculosis H37Rv. The experiment in a line: Inhibition of NDH-2 in Mycobacterium tuberculosis H37Rv inverted membrane vesicles over expressing ndh gene assessed as reduction in oxygen consumption at 50 uM by NADH oxygen consumption assay. Format: cell membranes. The conditions noted are these: Membrane vesicle.
The subject of data set [5] is Mycobacterium tuberculosis. As to the kind of experiment: Antitubercular activity against Mycobacterium tuberculosis H37Rv incubated for 7 days by Microplate Alamar Blue Assay. The conditions noted are these: 168 h, time 7 day. Format: functional.
Data set [6] concerns Mycobacterium tuberculosis. Format: functional. The conditions noted are these: H37Rv, 240 h, time 10 day.
The subject of data set [7] is Mycobacterium tuberculosis. As to the kind of experiment: Antitubercular activity against Mycobacterium tuberculosis H37Rv incubated for 4 days by Microplate Alamar Blue Assay. Format: functional. Particulars: 96 h, time 4 day.
Data set [8] in a line: Inhibition of NDH-2 in wild type Mycobacterium smegmatis mc24517 inverted membrane vesicles by NADH oxygen consumption assay. In kind it is cell membranes, Mycolicibacterium smegmatis, Membrane vesicle.
The nature of data set [9]: Inhibition of NDH-2 in Mycobacterium tuberculosis H37Rv inverted membrane vesicles over expressing ndh gene by NADH oxygen consumption assay. Format: cell membranes, Membrane vesicle.
Data set [10] deals with D(2) dopamine receptor (Homo sapiens, UniProt P14416). As to the kind of experiment: Displacement of [3H]-Raclopride from human D2 receptor (unknown origin) expressed in HEK293 cell membranes. Details: species or system Cell membrane. Background: Loss of bound radioactivity is the signal in a displacement assay; it reports binding, not function.
For data set [11], the target named is 5-hydroxytryptamine receptor 2A (Homo sapiens, UniProt P28223). The experiment in a line: Displacement of [3H]-Ketanserin from human 5HT2A receptor expressed in CHO-K1 cells. Format: ADME, cell-based.
Data set [12] concerns the target 5-hydroxytryptamine receptor 6 (Homo sapiens, UniProt P50406). The experiment in a line: Displacement of [3H]-LSD from human 5HT6 receptor expressed in HEK293 cells. Format: cell-based.
For data set [13], the target named is 5-hydroxytryptamine receptor 7 (Homo sapiens, UniProt P34969). As to the kind of experiment: Displacement of [3H]-5-CT from human 5HT7 receptor expressed in HEK293 cells. Format: cell-based.
Data set [14] concerns HepG2. As to the kind of experiment: Hepatotoxicity in human HepG2 cells at 50 uM incubated for 48 hrs by MTS assay. In kind it is toxicity, cell-based. The conditions noted are these: hepg2, 48 h. (In general: Tetrazolium assays rely on reduction of a dye to a coloured formazan, in cell work by metabolically active cells.)
The subject of data set [15] is HepG2. As to the kind of experiment: Hepatotoxicity in human HepG2 cells at 10 uM incubated for 48 hrs by MTS assay. Format: toxicity, cell-based. The conditions noted are these: hepg2, 48 h.
The nature of data set [16]: Metabolic stability in human liver microsomes by LC-MS/MS analysis. Format: ADME, Microsome.

Converted amounts (≈) assume the structure as drawn.

By IC50 is commonly meant the point on the concentration scale where inhibition reaches its midpoint. As usually defined, the inhibition is the percentage by which the read-out fell short of the control. As a reminder, the MIC90 is the lowest concentration that inhibits either 90% of growth or 90% of the strains tested, depending on the study. In general, Ki refers to the dissociation constant of the complex between target and ligand, obtained from inhibition or displacement.

5-hydroxytryptamine receptor 6, sequence (P50406 whole entry): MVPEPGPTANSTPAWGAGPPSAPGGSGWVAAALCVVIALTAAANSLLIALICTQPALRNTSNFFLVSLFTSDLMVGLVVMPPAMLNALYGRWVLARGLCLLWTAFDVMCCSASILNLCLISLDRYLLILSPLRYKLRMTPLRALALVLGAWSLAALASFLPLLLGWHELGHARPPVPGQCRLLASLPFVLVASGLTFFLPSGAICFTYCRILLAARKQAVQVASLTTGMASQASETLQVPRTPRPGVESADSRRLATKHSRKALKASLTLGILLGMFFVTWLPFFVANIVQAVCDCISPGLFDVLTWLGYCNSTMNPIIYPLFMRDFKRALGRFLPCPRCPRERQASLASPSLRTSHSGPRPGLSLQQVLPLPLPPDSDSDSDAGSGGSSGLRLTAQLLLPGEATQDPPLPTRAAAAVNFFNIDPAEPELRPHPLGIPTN
5-hydroxytryptamine receptor 2A, sequence (P28223 whole entry): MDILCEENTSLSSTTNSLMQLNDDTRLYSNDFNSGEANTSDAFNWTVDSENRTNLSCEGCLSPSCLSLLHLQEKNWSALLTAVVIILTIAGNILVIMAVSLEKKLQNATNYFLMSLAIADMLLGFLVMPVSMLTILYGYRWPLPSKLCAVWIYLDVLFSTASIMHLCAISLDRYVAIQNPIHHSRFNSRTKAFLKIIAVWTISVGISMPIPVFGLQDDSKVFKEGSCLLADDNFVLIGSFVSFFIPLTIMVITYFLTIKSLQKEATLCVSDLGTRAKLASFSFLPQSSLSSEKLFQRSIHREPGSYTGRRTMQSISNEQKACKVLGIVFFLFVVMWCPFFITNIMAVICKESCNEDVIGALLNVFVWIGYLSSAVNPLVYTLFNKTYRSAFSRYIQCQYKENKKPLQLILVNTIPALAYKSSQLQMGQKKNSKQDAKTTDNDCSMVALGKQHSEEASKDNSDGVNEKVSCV
5-hydroxytryptamine receptor 7, sequence (P34969 whole entry): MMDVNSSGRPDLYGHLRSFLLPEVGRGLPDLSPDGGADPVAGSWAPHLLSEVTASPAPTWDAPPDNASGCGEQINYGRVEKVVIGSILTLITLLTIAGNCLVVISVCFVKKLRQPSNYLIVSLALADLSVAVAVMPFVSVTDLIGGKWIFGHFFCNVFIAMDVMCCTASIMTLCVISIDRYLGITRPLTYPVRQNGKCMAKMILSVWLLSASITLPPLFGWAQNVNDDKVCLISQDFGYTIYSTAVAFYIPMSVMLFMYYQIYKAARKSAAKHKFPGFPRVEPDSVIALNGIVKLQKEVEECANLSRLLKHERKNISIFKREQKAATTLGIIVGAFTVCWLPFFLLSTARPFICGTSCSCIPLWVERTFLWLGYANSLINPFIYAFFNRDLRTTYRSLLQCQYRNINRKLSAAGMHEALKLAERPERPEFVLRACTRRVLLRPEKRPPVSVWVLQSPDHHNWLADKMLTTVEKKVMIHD
D(2) dopamine receptor, sequence (P14416 whole entry): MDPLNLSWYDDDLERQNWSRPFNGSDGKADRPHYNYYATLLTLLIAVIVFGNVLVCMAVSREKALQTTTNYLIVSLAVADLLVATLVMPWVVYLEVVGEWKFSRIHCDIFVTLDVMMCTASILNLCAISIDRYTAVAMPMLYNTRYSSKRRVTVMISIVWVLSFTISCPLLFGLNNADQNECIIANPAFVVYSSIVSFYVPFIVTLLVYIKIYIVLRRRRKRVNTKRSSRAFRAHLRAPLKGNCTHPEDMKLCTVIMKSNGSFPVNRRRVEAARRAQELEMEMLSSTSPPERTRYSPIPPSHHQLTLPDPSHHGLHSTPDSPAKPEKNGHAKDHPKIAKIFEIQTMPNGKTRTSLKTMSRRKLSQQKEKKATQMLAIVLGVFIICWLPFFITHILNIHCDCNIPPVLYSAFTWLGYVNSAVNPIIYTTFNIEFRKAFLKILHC

`Cl.Clc1cc(Cl)c2c(c1)Sc1cc(Cl)cc(Cl)c1N2CCCN1CCCC1`: in data set [1], the MIC came to 1.5 µg/mL. In addition, the 50% inhibitory concentration (IC50) in data set [2] was 18 µg/mL.
The corresponding values for `CN1CCCCC1CCN1c2ccc(Cl)cc2Sc2cc(Cl)cc(Cl)c21.Cl` (stereo not drawn) are 2.67 µg/mL and 19.2 µg/mL.
The corresponding values for `CN(C)CCCN1c2ccc(Cl)cc2Sc2cc(Cl)ccc21.Cl` are 2.51 µg/mL and 16.7 µg/mL.
For `CN(C)CCCN1c2ccc(Cl)cc2Sc2cc(Cl)cc(Cl)c21.Cl` the same measures were 4.46 µg/mL and 16.8 µg/mL.
`CC(=O)NC[C@H]1CN(c2ccc(N3CCOCC3)c(F)c2)C(=O)O1` [LINEZOLID]: the MIC in [1] was found to be 0.87 µg/mL (≈ 2.58 µM).
Turning to `CN(C)CCCN1c2ccc(Br)cc2Sc2cc(Br)ccc21.Cl`, in data set [1], the MIC was 2.38 µg/mL. The IC50 in data set [2] amounted to 27 µg/mL. Besides, the inhibition in [3] stood at 69.4%; in [4], 40.7%.
For `CN1CCCCC1CCN1c2ccccc2Sc2cc(Cl)ccc21.Cl` (stereo not drawn), in [1], the MIC stood at 5.48 µg/mL. The 50% inhibitory concentration (IC50) in [2] was determined as 30.7 µg/mL. In addition, the figures for the inhibition in data set [3] and in data set [4] were 47.5% and 12.5%, respectively.
In the case of `Brc1ccc2c(c1)Sc1cc(Br)ccc1N2CCCN1CCOCC1.Cl`, the MIC in data set [1] was 5.52 µg/mL. For the same molecule, the 50% inhibitory concentration (IC50) in data set [2] is over 50 µg/mL.
For `CO[C@H]1/C=C/O[C@@]2(C)Oc3c(C)c(O)c4c(O)c(c(/C=N/N5CCN(C)CC5)c(O)c4c3C2=O)NC(=O)/C(C)=C\C=C\[C@H](C)[C@H](O)[C@@H](C)[C@@H](O)[C@@H](C)[C@H](OC(C)=O)[C@@H]1C` [RIFAMPIN], the MIC90 in data set [5] was 0.06 µg/mL (≈ 0.0729 µM); in data set [6] it was over 128 µg/mL; in data set [7], 0.06 µg/mL (≈ 0.0729 µM). Further, the MIC in data set [1] was found to be 0.01 µg/mL (≈ 0.0122 µM).
In the case of `CN1CCCCC1CCN1c2c(Cl)cc(Cl)cc2Sc2cc(Cl)cc(Cl)c21.Cl` (stereo not drawn), the MIC90 came out at 3.1 µg/mL in data set [5], 2.89 µg/mL in data set [6] and 3.1 µg/mL in data set [7]. The MIC in [1] is 1.55 µg/mL. Further, the IC50 in [2] is 26.9 µg/mL; in data set [8] it was 3.6 µg/mL; in data set [9] it was 4.5 µg/mL. For the same molecule, the inhibition in data set [3] amounted to 92.4%; in [4] it was 74.2%. Moreover, the Ki in data set [10] came to 639 nM; in data set [11], 1240 nM; in data set [12] it was 387 nM; in data set [13], 1000 nM. In data set [14], the Activity result is on record as “Non-Toxic”.
With `Brc1ccc2c(c1)Sc1cc(Br)ccc1N2Cc1ccccn1.Cl`, the MIC in data set [1] was over 100 µg/mL. In addition, the IC50 in data set [2] is over 100 µg/mL.
Regarding `CN1CCCCC1CCN1c2ccc(Br)cc2Sc2cc(Br)cc(F)c21.Cl` (stereo not drawn), the MIC in [1] is 2.65 µg/mL. For the same molecule, in data set [2], the half-inhibitory concentration (IC50) turned out to be 17.7 µg/mL.
`NNC(=O)c1ccncc1` [ISONIAZID] came in with an MIC90 in data set [6] of 2.46 µg/mL (≈ 17.9 µM). Also, in [1], the MIC is 0.25 µg/mL (≈ 1.82 µM).
`CN(C)CCCN1c2ccccc2Sc2ccc(Cl)cc21` [CHLORPROMAZINE]: the MIC90 in data set [6] is 0.08 µg/mL (≈ 0.251 µM). The MIC in data set [1] came out at 4.41 µg/mL (≈ 13.8 µM). For the same molecule, the half-maximal inhibitory concentration (IC50) in data set [2] is 26.5 µg/mL (≈ 83.2 µM).
In the case of `CN1CCCCC1CCN1c2ccc(Br)cc2Sc2cc(Br)ccc21.Cl` (stereo not drawn), the MIC90 is 3.1 µg/mL in data set [5], 2.96 µg/mL in data set [6] and 3.1 µg/mL in [7]. The MIC in data set [1] was 1.5 µg/mL. Moreover, the results for the half-inhibitory concentration (IC50) in [2], in data set [8] and in data set [9] were 18.3 µg/mL, 4.7 µg/mL and 11.2 µg/mL, respectively. Further, the inhibition amounted to 93.7% in data set [3] and 84.8% in [4]. Moreover, the Ki in data set [10] turned out to be 688 nM; in data set [11], 1750 nM; in data set [12], 758 nM; in data set [13], 2150 nM. Further, the Activity entry in data set [15] is “Toxic”. Besides, the Stabilty entry in [16] is on record as “Unstable”.
In the case of `CN(C)CCCN1c2ccc(Br)cc2Sc2cc(Br)cc(F)c21.Cl`, in data set [1], the MIC was determined as 5.7 µg/mL. The IC50 in data set [2] was found to be 34.7 µg/mL.
The corresponding values for `Brc1ccc2c(c1)Sc1cc(Br)ccc1N2CCN1CCOCC1.Cl` are over 100 µg/mL and over 100 µg/mL.
For `CN(C)CCCN1c2ccccc2Sc2cc(Cl)ccc21.Cl` the same measures were 6.59 µg/mL and 35.8 µg/mL.
`CN1CCCCC1CCN1c2ccc(Cl)cc2Sc2cc(Cl)ccc21.Cl` (stereo not drawn): the MIC in [1] is 2.4 µg/mL. In addition, the half-maximal inhibitory concentration (IC50) in data set [2] was 17.9 µg/mL; in [8], 6.5 µg/mL. The values for the inhibition in data set [3] and in [4] were 85.4% and 59.3%, respectively.
In the case of `Brc1ccc2c(c1)Sc1cc(Br)ccc1N2CCN1CCCC1`, the MIC in data set [1] was 2.57 µg/mL (≈ 5.66 µM). Further, in [2], the 50% inhibitory concentration (IC50) was found to be 9.42 µg/mL (≈ 20.7 µM).
Take `N=c1sc(-c2ccc(F)cc2)nn1CC(=O)N1c2ccc(Br)cc2Sc2cc(Br)ccc21`: the MIC in data set [1] is over 50 µg/mL.
In the case of `Brc1ccc2c(c1)Sc1cc(Br)ccc1N2CCCN1CCCC1.Cl`, in [1], the MIC turned out to be 1.45 µg/mL. For the same molecule, the IC50 in data set [2] was found to be 17.1 µg/mL.
Take `CN1CCCCC1CCN1c2ccc(Br)cc2[Se]c2cc(Br)ccc21.Cl` (stereo not drawn): the MIC in data set [1] came to 2.35 µg/mL. Further, the 50% inhibitory concentration (IC50) in data set [2] stood at 17.6 µg/mL. For the same molecule, the inhibition constant Ki in data set [10] worked out at 367 nM; in data set [11], 1760 nM; in data set [12], 222 nM; in data set [13], 2340 nM. For the same molecule, the Activity result in data set [15] is listed as “Non-Toxic”. In addition, in data set [16], the Stabilty entry was “Stable”.
Molecule `CSc1ccc2c(c1)N(CCC1CCCCN1C)c1ccccc1S2` (stereo not drawn) [THIORIDAZINE] returned an MIC90 in data set [6] of 5.29 µg/mL (≈ 14.3 µM). Besides, the MIC in data set [1] worked out at 2.4 µg/mL (≈ 6.48 µM). The IC50 in data set [2] was found to be 17.8 µg/mL (≈ 48 µM). In addition, the Ki came out at 71 nM in data set [12] and 181 nM in [13].
On to `CCCCCCCc1cc(O)c2ccccc2[n+]1[O-]`, for which the inhibition worked out at 18.1% in [3] and 29.2% in [4].
As for `Cl.Clc1cc(Cl)c2c(c1)Sc1cc(Cl)cc(Cl)c1N2CCCN1CCOCC1`, the MIC in data set [1] is over 50 µg/mL.

The record behind these values is ChEMBL document CHEMBL4765353, “Antitubercular polyhalogenated phenothiazines and phenoselenazine with reduced binding to CNS receptors” (Eur J Med Chem, 2020).
